One test deals with T1, human factor XIa (Homo sapiens, UniProt P03951).
T1 construct: purchased Kordia
Nature of the test: Measurement of FXIa inhibition (fluorogenic peptide substrate Boc-Glu(OBzl)-Ala-Arg-AMC). The test is classed as biochemical. The settings on record: factor XIa from Kordia, 15 min preincubation, 30 min at 22° C., fluorescence. The method in brief:
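Released AMC fluorescence (360/460 nm) read after 30 min at 22 °C. The reaction was started with Boc-Glu(OBzl)-Ala-Arg-AMC (10 μM stock) after a 15 min preincubation of the enzyme (0.45 nM stock) with compound (final 50 μM to 0.00013 μM).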

The test system of a further test is human and animal plasma. The experiment in a line: Determination of anticoagulatory activity: activated partial thromboplastin time (aPTT) in plasma. The following applies: concentration of test substance which brings about a 1.5-fold extension of the aPTT, plasma species not given. The gist of the method:
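Citrated plasma (1:9, 0.11 M citrate; 4000 g, 15 min) from human or animal blood incubated with test compound and cephalin/kaolin PTT reagent for 3 min at 37° C.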

pIC50: −log10 of the molar value. Structures can show the parent of a compound that is named as a salt.

Usually pIC50 stands for the IC50 on a negative log10 scale, so that one unit is a factor of ten. A lower pIC50 goes with a large IC50.

T1 sequence (P03951 388-625 limits assumed): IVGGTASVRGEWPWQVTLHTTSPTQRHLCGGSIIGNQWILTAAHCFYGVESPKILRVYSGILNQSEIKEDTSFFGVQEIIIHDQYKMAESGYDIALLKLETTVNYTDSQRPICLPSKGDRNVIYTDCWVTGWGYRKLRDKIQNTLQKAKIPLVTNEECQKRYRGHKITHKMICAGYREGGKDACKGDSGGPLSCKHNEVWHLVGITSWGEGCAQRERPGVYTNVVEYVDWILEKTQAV
T1 sequence (P03951 19-387 partner limits assumed): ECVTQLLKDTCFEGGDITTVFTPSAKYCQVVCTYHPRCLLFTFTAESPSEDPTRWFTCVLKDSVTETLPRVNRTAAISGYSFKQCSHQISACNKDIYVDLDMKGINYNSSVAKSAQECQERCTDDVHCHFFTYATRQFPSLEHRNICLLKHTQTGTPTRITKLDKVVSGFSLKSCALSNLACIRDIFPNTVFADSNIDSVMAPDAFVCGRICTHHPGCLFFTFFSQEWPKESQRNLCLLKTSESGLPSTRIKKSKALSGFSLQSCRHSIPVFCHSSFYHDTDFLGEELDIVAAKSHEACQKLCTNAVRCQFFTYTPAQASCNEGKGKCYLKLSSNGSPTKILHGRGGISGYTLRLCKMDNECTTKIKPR

For `Cc1cc(C(=O)NC2CCNCC2)ccc1-c1ccc(C[C@H](NC(=O)[C@H]2CC[C@H](CN)CC2)C(=O)Nc2ccc(-c3nc(C(F)(F)C(F)(F)C(=O)O)n[nH]3)cc2)cc1` [Example 98, 3-{(5-[4-({(2S)-2-({[trans-4-(Aminomethyl)cyclohexyl]carbonyl}amino)-3-[2′-methyl-4′-(piperidin-4-ylcarbamoyl)biphenyl-4-yl]propanoyl}amino)phenyl]-1H-1,2,4-triazol-3-yl}-2,2,3,3-tetrafluoropropanoic acid hydrochloride], at human factor XIa, the pIC50 is 9.00. Besides, the “aPTT” value in the test on human and animal plasma came to 0.06 µmol/L.

With `Cc1cc(C(=O)N[C@H]2CCNC2=O)ccc1-c1ccc(C[C@H](NC(=O)[C@H]2CC[C@H](CN)CC2)C(=O)Nc2cc(F)c3oc(=O)[nH]c3c2)cc1` [Example 99, 4′-{(2S)-2-({[trans-4-(Aminomethyl)cyclohexyl]carbonyl}amino)-3-[(7-fluoro-2-oxo-2,3-dihydro-1,3-benzoxazol-5-yl)amino]-3-oxopropyl}-2-methyl-N-[(3S)-2-oxopyrrolidin-3-yl]biphenyl-4-carboxamide hydrochloride], the pIC50 on human factor XIa was 8.33. In addition, the “aPTT” value in the test on human and animal plasma was determined as 0.27 µmol/L.

`Cc1cc(C(=O)NC2CCN(C)CC2)ccc1-c1ccc(C[C@H](NC(=O)[C@H]2CC[C@H](CN)CC2)C(=O)Nc2ccc(-c3nc(C(F)(F)C(F)(F)C(=O)O)n[nH]3)cc2)cc1` [Example 100, 3-[5-(4-{[(2S)-2-({[trans-4-(Aminomethyl)cyclohexyl]carbonyl}amino)-3-{2′-methyl-4′-[(1-methylpiperidin-4-yl)carbamoyl]biphenyl-4-yl}propanoyl]amino}phenyl)-1H-1,2,4-triazol-3-yl]-2,2,3,3-tetrafluoropropanoic acid hydrochloride] showed a pIC50 against human factor XIa of 8.66. In addition, the “aPTT” value in the test with human and animal plasma (hydrochloride) stood at 0.1 µmol/L.

Compound `Cc1cc(C(=O)NC2CCC(N(C)C)CC2)ccc1-c1ccc(CC(NC(=O)[C@H]2CC[C@H](CN)CC2)C(=O)Nc2ccc(-c3nc(C(F)(F)C(F)(F)C(=O)O)n[nH]3)cc2)cc1` (stereo partly drawn) [Example 101, 3-[5-(4-{[(2S)-2-({[trans-4-(Aminomethyl)cyclohexyl]carbonyl}amino)-3-(4′-{[4-(dimethyl-amino)cyclohexyl]carbamoyl}-2′-methylbiphenyl-4-yl)propanoyl]amino}phenyl)-1H-1,2,4-triazol-3-yl]-2,2,3,3-tetrafluoropropanoic acid hydrochloride] gave a pIC50 against human factor XIa of 8.96. In addition, in the test with human and animal plasma, the “aPTT” value is 0.07 µmol/L.

As to `Cc1cc(C(=O)N[C@@H]2C[C@@H](CO)NC2=O)ccc1-c1ccc(C[C@H](NC(=O)[C@H]2CC[C@H](CN)CC2)C(=O)Nc2ccc(-c3nc(C(F)(F)C(F)(F)C(=O)O)n[nH]3)cc2)cc1` [Example 106, 3-[5-(4-{[(2S)-2-({[trans-4-(Aminomethyl)cyclohexyl]carbonyl}amino)-3-(4′-{[(3R,5S)-5-(hydroxymethyl)-2-oxopyrrolidin-3-yl]carbamoyl}-2′-methylbiphenyl-4-yl)propanoyl]amino}-phenyl)-1H-1,2,4-triazol-3-yl]-2,2,3,3-tetrafluoropropanoic acid hydrochloride], the pIC50 against human factor XIa was 8.96. For the same compound, the “aPTT” value with human and animal plasma came to 0.11 µmol/L.

The compound `Cc1cc(C(=O)NC2CCNCC2(C)C)ccc1-c1ccc(C[C@H](NC(=O)[C@H]2CC[C@H](CN)CC2)C(=O)Nc2ccc(-c3nnc(C(F)(F)C(F)(F)C(=O)O)[nH]3)cc2)cc1` (stereo partly drawn) [Example 107, 3-[5-(4-{[(2S)-2-({[trans-4-(Aminomethyl)cyclohexyl]carbonyl}amino)-3-{4′-[(3,3-dimethylpiperidin-4-yl)carbamoyl]-2′-methylbiphenyl-4-yl}propanoyl]amino}phenyl)-4H-1,2,4-triazol-3-yl]-2,2,3,3-tetrafluoropropanoic acid hydrochloride] had a pIC50 on human factor XIa of 8.85. Further, the “aPTT” value in the test on human and animal plasma turned out to be 0.1 µmol/L.

At human factor XIa, `Cc1cc(C(=O)NCC2CCN(C)CC2)ccc1-c1ccc(C[C@H](NC(=O)[C@H]2CC[C@H](CN)CC2)C(=O)Nc2ccc(-c3nnc(C(F)(F)C(F)(F)C(=O)O)[nH]3)cc2)cc1` [Example 108, 3-[5-(4-{[(2S)-2-({[trans-4-(Aminomethyl)cyclohexyl]carbonyl}amino)-3-(2′-methyl-4′-{[(1-methylpiperidin-4-yl)methyl]carbamoyl}biphenyl-4-yl)propanoyl]amino}phenyl)-4H-1,2,4-triazol-3-yl]-2,2,3,3-tetrafluoropropanoic acid hydrochloride] showed a negative-log IC50 (pIC50) of 8.72. For the same compound, in the test on human and animal plasma, the “aPTT” value was found to be 0.07 µmol/L.

As for `Cc1cc(C(=O)NC2CCN(C)CC2)ccc1-c1ccc(C[C@H](NC(=O)[C@H]2CC[C@H](CN)CC2)C(=O)Nc2ccc(-c3nc(C(F)(F)C(F)(F)CO)n[nH]3)cc2)cc1` [Example 109, 4′-[(2S)-2-({[trans-4-(Aminomethyl)cyclohexyl]carbonyl}amino)-3-oxo-3-({4-[3-(1,1,2,2-tetrafluoro-3-hydroxypropyl)-1H-1,2,4-triazol-5-yl]phenyl}amino)propyl]-2-methyl-N-(1-methylpiperidin-4-yl)biphenyl-4-carboxamide hydrochloride], at human factor XIa, the pIC50 is 8.52. Further, the “aPTT” value with human and animal plasma was found to be 0.11 µmol/L.

Regarding `Cc1cc(C(=O)N[C@H]2CC[C@H](O)CC2)ccc1-c1ccc(C[C@H](NC(=O)[C@H]2CC[C@H](CN)CC2)C(=O)Nc2ccc(-c3nc(C(F)(F)C(F)(F)CO)n[nH]3)cc2)cc1` [Example 110, 4′-[(2S)-2-({[trans-4-(Aminomethyl)cyclohexyl]carbonyl}amino)-3-oxo-3-({4-[3-(1,1,2,2-tetrafluoro-3-hydroxypropyl)-1H-1,2,4-triazol-5-yl]phenyl}amino)propyl]-N-(trans-4-hydroxycyclohexyl)-2-methylbiphenyl-4-carboxamide hydrochloride], at human factor XIa, the pIC50 is 8.74. In addition, the “aPTT” value in the test on human and animal plasma was determined as 0.11 µmol/L.

Consider `NC[C@H]1CC[C@H](C(=O)N[C@@H](Cc2ccc(-c3ccc(C(=O)N[C@@H]4CCCNC4=O)c(F)c3)cc2)C(=O)Nc2ccc(-c3n[nH]c(C(F)(F)C(F)(F)C(=O)O)n3)cc2)CC1` [Example 111, 3-[3-(4-{[(2S)-2-({[trans-4-(Aminomethyl)cyclohexyl]carbonyl}amino)-3-(3′-fluoro-4′-{[(3R)-2-oxopiperidin-3-yl]carbamoyl}biphenyl-4-yl)propanoyl]amino}phenyl)-1H-1,2,4-triazol-5-yl]-2,2,3,3-tetrafluoropropanoic acid hydrochloride], for which the pIC50 against human factor XIa is 9.00. For the same compound, in the test with human and animal plasma, the “aPTT” value worked out at 0.13 µmol/L.

As for `NC[C@H]1CC[C@H](C(=O)N[C@@H](Cc2ccc(-c3ccc(C(=O)N[C@H]4CC[C@H](O)CC4)c(F)c3)cc2)C(=O)Nc2ccc(-c3n[nH]c(C(F)(F)C(F)(F)C(=O)O)n3)cc2)CC1` [Example 112, 3-[3-(4-{[(2S)-2-({[trans-4-(Aminomethyl)cyclohexyl]carbonyl}amino)-3-{3′-fluoro-4′-[(trans-4-hydroxycyclohexyl)carbamoyl]biphenyl-4-yl}propanoyl]amino}phenyl)-1H-1,2,4-triazol-5-yl]-2,2,3,3-tetrafluoropropanoic acid hydrochloride], the pIC50 at human factor XIa was 8.70. Besides, the “aPTT” value with human and animal plasma was 0.17 µmol/L.

`Cc1cc(C(=O)N(C)C2CCN(C)CC2)ccc1-c1ccc(C[C@H](NC(=O)[C@H]2CC[C@H](CN)CC2)C(=O)Nc2ccc(-c3nnc(C(F)(F)C(F)(F)C(=O)O)[nH]3)cc2)cc1` [Example 113, 3-[5-(4-{[(2S)-2-({[trans-4-(Aminomethyl)cyclohexyl]carbonyl}amino)-3-{2′-methyl-4′-[methyl(1-methylpiperidin-4-yl)carbamoyl]biphenyl-4-yl}propanoyl]amino}phenyl)-4H-1,2,4-triazol-3-yl]-2,2,3,3-tetrafluoropropanoic acid hydrochloride] gave a pIC50 against human factor XIa of 8.31. Further, the “aPTT” value with human and animal plasma was determined as 0.07 µmol/L.

For `Cc1cc(C(=O)NCC(=O)N2CCC(N(C)C)CC2)ccc1-c1ccc(C[C@H](NC(=O)[C@H]2CC[C@H](CN)CC2)C(=O)Nc2ccc(-c3nnc(C(F)(F)C(F)(F)C(=O)O)[nH]3)cc2)cc1` [Example 114, 3-{5-[4-({(2S)-2-({[trans-4-(Aminomethyl)cyclohexyl]carbonyl}amino)-3-[4′-{(2-[4-(dimethylamino)piperidin-1-yl]-2-oxoethyl}carbamoyl)-2′-methylbiphenyl-4-yl]propanoyl}-amino)phenyl]-4H-1,2,4-triazol-3-yl}-2,2,3,3-tetrafluoropropanoic acid hydrochloride], the pIC50 against human factor XIa is 8.59. In addition, the “aPTT” value in the test on human and animal plasma turned out to be 0.14 µmol/L.

As for `Cc1cc(C(=O)NC2CCC3NCCC32)ccc1-c1ccc(C[C@H](NC(=O)[C@H]2CC[C@H](CN)CC2)C(=O)Nc2ccc(-c3nnc(C(F)(F)C(F)(F)C(=O)O)[nH]3)cc2)cc1` (stereo partly drawn) [Example 115, 3-{5-[4-({(2S)-2-({[trans-4-(Aminomethyl)cyclohexyl]carbonyl}amino)-3-[2′-methyl-4′-(octahydrocyclopenta[b]pyrrol-4-ylcarbamoyl)biphenyl-4-yl]propanoyl}amino)phenyl]-4H-1,2,4-triazol-3-yl}-2,2,3,3-tetrafluoropropanoic acid hydrochloride], the pIC50 on human factor XIa is 8.64. Besides, the “aPTT” value with human and animal plasma turned out to be 0.09 µmol/L.

For `COc1cc(C(=O)NC2CCN(C)CC2)cc(OC)c1-c1ccc(C[C@H](NC(=O)[C@H]2CC[C@H](CN)CC2)C(=O)Nc2ccc(-c3nn[nH]n3)cc2)cc1` [Example 117, 4′-[(2S)-2-({[trans-4-(Aminomethyl)cyclohexyl]carbonyl}amino)-3-oxo-3-{[4-(2H-tetrazol-5-yl)phenyl]amino}propyl]-2,6-dimethoxy-N-(1-methylpiperidin-4-yl)biphenyl-4-carboxamide hydrochloride], the pIC50 at human factor XIa is 8.05. The “aPTT” value in the test with human and animal plasma was 0.18 µmol/L.

The values above are taken from US20160272617A1, “SUBSTITUTED PHENYLALANINE DERIVATIVES” (BAYER PHARMA AKTIENGESELLSCHAFT, priority 2013, published 2016).
